Measured values as given in patent publication US11351173B2, “Substituted pyrrolo[1,2-a]pyrimidines and their use in the treatment of medical disorders” (Bial—R&D Investments, S.A., priority 2014, dated 2022).
Values after ≈ are worked out from the molar mass of the structure shown.

Experiments:
[1] = target: T1, glucocerebrosidase (Gcase) (Homo sapiens, UniProt P04062); assay: Glucocerebrosidase (Gcase) activation assay, 4-methylumbelliferyl-beta-D-glucopyranoside substrate, fluorescence readout; format: biochemical; conditions: for activation at 0.1 µM / Percent Gcase Activation, 0.1 μM Test Compound: test compound at 0.1 μM; for activation at 0.1 µM: read-out: Percent Gcase Activation, 0.1 μM Test Compound; for activation at 1 µM / Percent Gcase Activation, 1 μM Test Compound: test compound at 1.0 μM; for activation at 1 µM: read-out: Percent Gcase Activation, 1 μM Test Compound
T1 construct: micellar solution containing 10 nM GCase and 100 nM saposin C
T1 sequence (P04062 40-536): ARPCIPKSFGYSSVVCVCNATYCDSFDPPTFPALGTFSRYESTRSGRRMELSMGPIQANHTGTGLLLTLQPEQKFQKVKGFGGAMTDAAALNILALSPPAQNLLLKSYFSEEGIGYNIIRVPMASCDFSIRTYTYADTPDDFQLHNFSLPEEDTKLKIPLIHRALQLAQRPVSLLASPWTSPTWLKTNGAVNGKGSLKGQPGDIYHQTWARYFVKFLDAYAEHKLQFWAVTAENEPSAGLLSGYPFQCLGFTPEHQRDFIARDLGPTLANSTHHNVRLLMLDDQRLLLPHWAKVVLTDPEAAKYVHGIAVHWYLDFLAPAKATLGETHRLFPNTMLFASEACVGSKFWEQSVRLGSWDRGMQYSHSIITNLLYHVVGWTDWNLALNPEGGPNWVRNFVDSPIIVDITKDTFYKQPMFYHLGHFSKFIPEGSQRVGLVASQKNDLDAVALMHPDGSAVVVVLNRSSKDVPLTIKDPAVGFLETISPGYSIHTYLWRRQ
Method in brief: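 Test compounds are first screened at 1.0 and 0.1 μM final, then titrated in 8 points (3-fold from 5 μM) against human GCase with saposin C in phosphatidylserine/triton X-100 micelles at pH 4.7. Reactions run 15 min at room temperature, with fluorescence read at 365/440 nm.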

[2] = Compound solubility in water; conditions: water; for solubility: Compound Solubility in Water

Row | Structure (SMILES) | activation at 0.1 µM [1] [%] | activation at 1 µM [1] [%] | solubility ([2]; in water) [µg/mL] | Percent Gcase Activation, 0.1 μM Test Compound [1] | Percent Gcase Activation, 1 μM Test Compound [1] | Compound Solubility in Water [2] [µg/mL] | solubility [2] [µg/mL]
1 | Cc1cc(C)n2ccc(C(=O)N[C@H]3CC[C@H](Oc4cccnc4)CC3)c2n1 [III-206] | < 10 | < 30 | 4.1 (≈ 11.2 µM) |  |  |  | 
2 | CCCCCOC1CCC(NC(=O)c2ccn3c(C)cc(C)nc23)C1 (stereo not drawn) [III-177] |  |  |  | *** (greater than 20% Gcase activation) | +++ (Gcase activation greater than 60%) | 17.2 | 
3 | CCCCCOC1CCCC(NC(=O)c2ccn3c(C)cc(C)nc23)C1 (stereo not drawn) [III-234] | > 20 | > 60 | 1.5 (≈ 4.2 µM) |  |  |  | 
4 | Cc1cc(C)n2ccc(C(=O)NCC3CCC4(CCCCO4)CC3)c2n1 (stereo not drawn) [III-123] | < 10 | > 60 |  |  |  |  | 19.4 (≈ 54.6 µM)
5 | Cc1cc(C)n2c(F)cc(C(=O)Nc3ccc(-c4cocn4)cc3)c2n1 [III-271] | > 20 | > 60 | 0.7 (≈ 2 µM) |  |  |  | 
6 | [2H]C1(NC(=O)c2ccn3c(C)cc(NC(C)=O)nc23)CCOc2ccccc21 (stereo not drawn) [III-163] | < 10 | < 30 |  |  |  |  | 2.5 (≈ 6.84 µM)
7 | Cc1cc(C)n2ccc(C(=O)N[C@H]3CC[C@H](OC(C)(C)C)CC3)c2n1 [III-289] | 10 to 20 | > 60 | 17.1 (≈ 49.8 µM) |  |  |  | 
8 | Cc1cc(C)n2ccc(C(=O)NC3(C)CCOc4ccc(F)c(F)c43)c2n1 (stereo not drawn) [III-173] | 10 to 20 | > 60 |  |  |  |  | 0.06 (≈ 0.162 µM)
9 | Cc1cc(O)n2ccc(C(=O)NC3CCCc4ccccc43)c2n1 (stereo not drawn) [III-56] | < 10 | < 30 |  |  |  |  | 3.7 (≈ 11.5 µM)
10 | CCCCO[C@H]1CC[C@H](NC(=O)c2ccn3c(C4CC4)cc(C)nc23)CC1 [III-44] | 10 to 20 | > 60 |  |  |  |  | 2.3 (≈ 6.22 µM)
11 | Cc1ccnc2c(C(=O)NC3(C)CCOc4ccc(F)cc43)ccn12 (stereo not drawn) [III-264] | 10 to 20 | > 60 | 12.5 (≈ 36.8 µM) |  |  |  | 
12 | Cc1cc(C)n2ccc(C(=O)Nc3ccc(-c4ccco4)cc3)c2n1 [III-276] |  |  | < 0.1 | *** (greater than 20% Gcase activation) | +++ (Gcase activation greater than 60%) |  | 
13 | Cc1cc(C)n2ccc(C(=O)Nc3ccc(-c4ncco4)cc3)c2n1 [III-7] | > 20 | > 60 |  |  |  |  | 0.06 (≈ 0.181 µM)
14 | Cc1cc(Cl)n2ccc(C(=O)Nc3ccc(-c4cocn4)cc3)c2n1 [III-39] | 10 to 20 | 30 to 60 |  |  |  |  | 0.7 (≈ 1.98 µM)
15 | Cc1cc(C)n2ccc(C(=O)Nc3ccc(-c4cocn4)nc3)c2n1 [III-3] | < 10 | 30 to 60 |  |  |  |  | < 1.5
16 | Cc1cc(C)n2ccc(C(=O)NC3COCc4ccccc43)c2n1 (stereo not drawn) [III-210] | 10 to 20 | > 60 | 3.3 (≈ 10.3 µM) |  |  |  | 
17 | Cc1cc(C)n2ccc(C(=O)NC3CCCc4ccc(C#N)cc43)c2n1 (stereo not drawn) [III-209] | 10 to 20 | > 60 | 2.3 (≈ 6.68 µM) |  |  |  | 
18 | Cc1cc(C)n2ccc(C(=O)NC3(C)CCOc4c(F)cccc43)c2n1 (stereo not drawn) [III-133] | > 20 | > 60 |  |  |  |  | 1.9 (≈ 5.38 µM)
19 | COCCOc1ccc2c(c1)C(NC(=O)c1ccn3c(C)cc(C)nc13)CCO2 (stereo not drawn) [III-170] | < 10 | 30 to 60 |  |  |  |  | 9.2 (≈ 23.3 µM)
20 | Cc1cc(C2CC2)n2ccc(C(=O)N[C@H]3CC[C@H](OCCCC(F)(F)F)CC3)c2n1 [III-46] | < 10 | > 60 |  |  |  |  | 1.7 (≈ 4.01 µM)
21 | Cc1cc(C)n2ccc(C(=O)Nc3ccc(-c4cccs4)nc3)c2n1 [III-8] | > 20 | > 60 |  |  |  |  | 0.01 (≈ 0.0287 µM)

Row | Structure (SMILES) | activation at 0.1 µM [1] [%] | activation at 1 µM [1] [%] | solubility ([2]; in water) [µg/mL] | Percent Gcase Activation, 0.1 μM Test Compound [1] | Percent Gcase Activation, 1 μM Test Compound [1] | Compound Solubility in Water [2] [µg/mL] | solubility [2] [µg/mL]
22 | COCc1cc(C2CC2)n2ccc(C(=O)NC3(C)CCOc4cc(F)c(F)cc43)c2n1 (stereo not drawn) [III-270] | < 10 | 30 to 60 | 3 (≈ 7.02 µM) |  |  |  | 
23 | Cc1ccnc2c(C(=O)NC3(C)CCOc4ccccc43)ccn12 (stereo not drawn) [III-257] | 10 to 20 | > 60 | 28.9 (≈ 89.9 µM) |  |  |  | 
24 | CCCCO[C@H]1C2CCC1C[C@@H](NC(=O)c1ccn3c(C)cc(C)nc13)C2 [III-185] | > 20 | > 60 |  |  |  |  | 3.1 (≈ 8.39 µM)
25 | COCC#Cc1ccc(NC(=O)c2ccn3c(C)cc(C)nc23)cn1 [III-18] | < 10 | 30 to 60 |  |  |  |  | 0.7 (≈ 2.09 µM)
26 | C#Cc1ccc(NC(=O)c2ccn3c(C)cc(C)nc23)c(OC)c1 [III-129] | > 20 | > 60 |  |  |  |  | 0.3 (≈ 0.939 µM)
27 | CNc1cc(C)n2ccc(C(=O)NC3c4ccccc4C4CC3C4)c2n1 (stereo not drawn) [III-70] | > 20 | > 60 |  |  |  |  | 0.3 (≈ 0.866 µM)
28 | Cc1cc(Br)nc2c(C(=O)Nc3ccc(-c4cocn4)cc3)ccn12 [III-40] | 10 to 20 | > 60 |  |  |  |  | 0.3 (≈ 0.755 µM)
29 | CCCCO[C@H]1CC[C@H](NC(=O)c2ccn3c(C)cc(Cl)nc23)CC1 [III-65] | > 20 | > 60 |  |  |  |  | 8.2 (≈ 22.5 µM)
30 | Cc1cc(C)n2ccc(C(=O)Nc3ccc4c(c3)OCO4)c2n1 [III-16] | > 20 | > 60 |  |  |  |  | 0.2 (≈ 0.647 µM)
31 | Cc1cc(C)n2ccc(C(=O)NC3CCC4(CCCO4)CC3)c2n1 (stereo not drawn) [III-141] | < 10 | < 30 |  |  |  |  | 17 (≈ 51.9 µM)
32 | Cc1cc(C)n2ccc(C(=O)Nc3ccc4c(c3)C(Oc3nnc(C)o3)CC4)c2n1 (stereo not drawn) [III-221] | < 10 | 30 to 60 | 0.1 (≈ 0.248 µM) |  |  |  | 
33 | Cc1cc(C)n2ccc(C(=O)NC3CCCCC34CCOCC4)c2n1 (stereo not drawn) [III-184] | 10 to 20 | > 60 |  |  |  |  | 19.5 (≈ 57.1 µM)
34 | Cc1cc(C)n2ccc(C(=O)N[C@@H]3CCc4ccccc43)c2n1 [III-218] | > 20 | > 60 | 0.2 (≈ 0.655 µM) |  |  |  | 
35 | CCCCO[C@H]1CC[C@H](NC(=O)c2ccn3c(C)cc(COC)nc23)CC1 [III-45] | 10 to 20 | > 60 |  |  |  |  | 13.6 (≈ 36.4 µM)
36 | Cc1cc(C)n2ccc(C(=O)Nc3ccc(Cl)c(-c4cnco4)c3)c2n1 [III-214] | > 20 | > 60 | 0.01 (≈ 0.0273 µM) |  |  |  | 
37 | Cc1cc(C)n2ccc(C(=O)NC3CCC4(CCCCO4)CC3)c2n1 (stereo not drawn) [III-113] |  |  |  | * (less than 10% Gcase activation) | +++ (Gcase activation greater than 60%) | 19.7 | 
38 | Cc1ccnc2c(C(=O)NC3(C)CCCc4ccccc43)ccn12 (stereo not drawn) [III-262] | > 20 | > 60 | 0.9 (≈ 2.82 µM) |  |  |  | 
39 | C#CCCCCO[C@H]1CC[C@H](NC(=O)c2ccn3c(C)cc(C)nc23)CC1 [III-208] | > 20 | > 60 | 0.8 (≈ 2.18 µM) |  |  |  | 
40 | Cc1cc(C)n2ccc(C(=O)NC3(C)CCOc4cccc(F)c43)c2n1 (stereo not drawn) [III-118] | > 20 | > 60 |  |  |  |  | 1.4 (≈ 3.96 µM)
41 | CC[C@H](NC(=O)c1ccn2c(C)cc(C)nc12)c1ccccc1 [III-164] | > 20 | > 60 |  |  |  |  | 1.4 (≈ 4.55 µM)
